Experiments:
[1] = system: U-2 OS and CHO cell lines; assay: Cellular retention and efflux characteristics test (before/after washing imaging, retaining ratio RR); format: cell-based, human (U-2 OS), Chinese hamster (CHO); settings: 30 min; for Experimentally observed group: U-2 OS and CHO cell lines, probe 1 μM, imaged before and 10 min after washing; for Cellular retention after washing (probe signal): CHO and U-2 OS cells, 1 uM probe
Source text: To expedite an efficient strategy for ‘tame' probe development, we set up a system to predict cellular properties of fluorescent probes via phenotypic high-throughput screening (HTS), cheminformatics and statistical analysis (Fig. 1a). As the first step, we conducted phenotypic HTS to investigate cell permeability and nonspecific binding properties of the probes in a training set. We tested about 2,085 probes consisted of a wide range photophysical properties from numerous fluorophore cores such as BODIPY[12][13][14][15], xanthone, rosamine, cyanine[19][20] and ACEMAN[21]. Their cellular influx and efflux profiles were examined in two types of mammalian cells, U-2 OS and CHO. These cell lines were chosen due to their flexibility in genetic manipulation, adaptability to various culture conditions and versatility in wide biomedical research such as gene expression, toxicity screening, recombinant protein and live cell imaging. Each of the probes was added into live cells and cell image was taken after 30 min by ImageXpress Micro cellular imaging system (Molecular Device). The cells were then washed with fresh growth media, and after another 10 min, a second image was taken to check the completeness of probe washing out of the cell. The first and second imaging facilitated influx (before washing, BW) and efflux (after washing, AW) measurements, respectively (Supplementary Fig. 1).
To measure the influx and efflux of the probes, an automated quantitative intensity-based image analysis was then performed by Multi-Wavelength Cell Scoring analysis using MetaXpress High Content Image software. Retaining ratio (RR, per cent ratio of the average intensity of AW image over BW image) was computed to classify probes into the three phenotypic groups. For each cell in the image, the nuclei and cell region were segmented to provide approximate cellular boundaries. Fluorescence intensity was then quantified on a cell-by-cell basis by the following steps: (i) selecting the image of interest, (2) specifying the width of the stained cell area, (3) adjusting the intensity above local background for detection specificity, and (4) calculating fluorescence intensity with specified reporting parameters. Average fluorescence intensity for each BW and AW images was calculated for each probes and cell lines, and was then used as input in RR calculation (Supplementary Figs 2 and 3).
U-2 OS, a human osteosarcoma cell line, and CHO, a Chinese hamster ovary cell line, (from ATCC) were cultured in Dulbecco's modified eagle's medium (DMEM) (Invitrogen, CA, USA) supplemented with fetal bovine serum (FBS) (10%) and penicillin–streptomycin (1%). Materials used in the cell culture were purchased from Invitrogen. U-2 OS and CHO cells were seeded onto 96-well plate in growth media at 37 °C in the presence of 5% CO2 and were then allowed to attach and grow to 70–80% confluence. Library probes were dissolved in dimethylsulfoxide (DMSO) to make the 1 mM solution, and stored in −20 °C. Before HTS experiment, the growth media was aspirated and replaced by 200 μl fresh growth media containing probes in final concentration of 1 μM and nuclei dye Hoechst 33342. Plates were incubated for 30 min at 37 °C then were imaged using ImageXpress Micro cellular imaging system (Molecular Device) with × 10 objective lens. Immediately after image acquisition, the cells were washed with fresh growth media, and transferred back to a 37 °C cell incubator for further incubation. After 10 min, cells were again imaged (AW image). The first imaging step allowed influx measurement of BW image , while the second imaging step allowed out-flux measurement of AW image. Images of two regions per well were acquired with DAPI, FITC, TRITC or Texas Red filter sets according to probes' excitation and emission wavelength. Experiment was performed in duplicate. Cellular retention and efflux characteristics test for other synthesized probes were also done by using the same protocol. […]

[2] = system: azide-tagged intracellular organelles in U-2 OS cells; assay: Live cell SPAAC labelling of azide-tagged organelles (mitochondria, lysosome, golgi apparatus); format: cell-based, human; settings: U-2 OS cells pre-treated with TPP-Az, Sphingo-Az or Morph-Az, 2 μM probe, 1 h, 37 °C
Source text: Next, we investigated intracellular imaging in live cells using CO-1. We synthesized various azide-bearing reporters: TPP-Az, a triphenylphosphonium analogue which accumulates in mitochondria; Sphingo-Az, a ceramide analogue to target golgi apparatus; and Morph-Az, an azide derivative with morpholine moiety as a directing group for lysosome (Fig. 3a). SPAAC covalent labelling reactions between CO-1 and all azide reporters in vitro were clean and rapid. We anticipated that the cell permeable CO-1 is capable of labelling any azide reporters effectively, regardless the reporters' cellular localization. We added 2 μM CO-1 to the growth media of U-2 OS cells pre-treated with TPP-Az, Sphingo-Az or Morph-Az separately. Confocal fluorescence images were then taken after probe washing.
Figure 3 Live cell imaging with CO-1. (a) Chemical structures and schematic illustration of the covalent labelling of azide-tagged organelles using CO-1 in live cells. (b) Fluorescence imaging of mitochondria, lysosome and golgi apparatus in U-2 OS cells labelled with CO-1. Cells pre-treated with TPP-Az, Morph-Az or Sphingo-Az were incubated with 2 μM CO-1 in growth media at 37 °C for 1 h and followed by counterstaining with organelle trackers. Scale bar, 15 μm. (c) Fluorescence imaging of histone H2B in live U-2 OS. U-2 OS cells were co-transfected with plasmids pIre-Azi3 and pmH2B-6-mKate2-16tag to incorporate UAA Azi into H2B-mKate2 at site 16. After Azi incorporation, cells were labelled with 10 μM CO-1 for 90 min at 37 °C. Cells were then washed and imaged. The mKate2 (red) signals were detected in cell nuclei only, and colocalized with the CO-1 (green) signals in the merged image. Scale bar, 5 μm.
U-2 OS cells were treated with 5 μM TPP-Az, in culture media for 2 h at 37 °C. After incubation, cells were washed and added with 2 μM CO-1 probe. Labelling was allowed to proceed for 1 h at 37 °C in the incubator chamber. […]
Fluorescence imaging of mitochondria, lysosome and golgi apparatus in U-2 OS cells labeled with CO-1H. […] In contrast to CO-1, high fluorescence background from CO-1H was observed. […]

[3] = Spectroscopic properties (absorbance, emission, extinction coefficient, quantum yield); format: physicochemical; settings: 10 μM in DMSO
Method: Supplementary Table 9. Spectrocopic properties and purity table for CO-1 and CO-1H.
Calculated mass, experimental mass, absorbance maximum (λabs), fluorescent emission maximum (λem), extinction coefficient (ε), quantum yield (Φ), and purity. mass m/z λabs λem ε Purity […]
Absorbance and fluorescence emission data were recorded by a Synergy 4, Biotek Inc. fluorescent plate reader at 10 μM concentration in DMSO in 96-well plates. HRMS a: found mass (M-H), b: tetramethyl BODIPY was used as standard, c: purity data was calculated on the basis of the integration in HPLC trace at 254 nm.

| SMILES | Experimentally observed group [1] | other results |
| --- | --- | --- |
| Cc1cc(/C=C/c2ccc(B(O)O)cc2)n2c1C(c1ccc(N)cc1)=C1C=CC=[N+]1[B-]2(F)F [BOR-1H] | H-group (those with RR >5% were classified into H-group) |  |
| Cc1cc(/C=C/c2ccc(B(O)O)cc2)n2c1C(CCC(=O)N1CCOCC1)=C1C=CC(CCC(=O)N(C)C)=[N+]1[B-]2(F)F [BOR-1] | L-group (Probes (FI(BW) >200) with rapid efflux were observed to have a RR of <5%, and thus were classified into L-group) | Cellular retention after washing (probe signal) [1]: significantly decreased after washing |
| COC(=O)c1ccc(C2=C3C(C)=CC(C)=[N+]3[B-](F)(F)n3c(/C=C/c4ccc(B(O)O)cc4)cc(C)c32)cc1 [BOR-2H] | H-group (those with RR >5% were classified into H-group) |  |
| Cc1cc(C)n2c1C(CCC(=O)N1CCOCC1)=C1C=CC(CCC(=O)NCCC(=O)N3Cc4ccccc4C#Cc4ccccc43)=[N+]1[B-]2(F)F [CO-1H] | H-group (those with RR >5% were classified into H-group) | Fluorescence background after washing [2]: high-fluorescence background; ε [3]: 83333 M⁻¹ cm⁻¹; λabs [3]: 500 nm; λem [3]: 520 nm; QY (Φ) ([3]; tetramethyl BODIPY as standard): 0.83; Cellular retention after washing (probe signal) [1]: retained inside the cells |
| NCCNC1=C2C=CC=[N+]2[B-](F)(F)n2cccc21 [CS-2] | L-group (Probes (FI(BW) >200) with rapid efflux were observed to have a RR of <5%, and thus were classified into L-group) |  |
| CCc1c(C)c2n(c1C)[B-](F)(F)[N+]1=CC=CC1=C2SC [CS-3] | L-group (Probes (FI(BW) >200) with rapid efflux were observed to have a RR of <5%, and thus were classified into L-group) |  |
| CCc1c(C)c2n(c1C)[B-](F)(F)[N+]1=CC=CC1=C2 [CS-8] | L-group (Probes (FI(BW) >200) with rapid efflux were observed to have a RR of <5%, and thus were classified into L-group) |  |
| COC1=C2C=CC(C)=[N+]2[B-](F)(F)n2c(C)ccc21 [CS-11] | L-group (Probes (FI(BW) >200) with rapid efflux were observed to have a RR of <5%, and thus were classified into L-group) |  |
| F[B-]1(F)n2cccc2C(N2CCOCCOCCOCC2)=C2C=CC=[N+]21 [CS-13] | L-group (Probes (FI(BW) >200) with rapid efflux were observed to have a RR of <5%, and thus were classified into L-group) |  |
| F[B-]1(F)n2cccc2C(N2CCOCCOCCOCCOCC2)=C2C=CC=[N+]21 [CS-14] | N-group (Probes in which BW images having FI(BW) ≤200 were classified as N-group) |  |
| CC1=[N+]2C(=C(N3CCNCC3)c3ccc(C)n3[B-]2(F)F)C=C1 [CS-42] | L-group (Probes (FI(BW) >200) with rapid efflux were observed to have a RR of <5%, and thus were classified into L-group) |  |
| CCOC(=O)CCNC1=C2C=CC(CC)=[N+]2[B-](F)(F)n2c(CC)ccc21 [CS-56] | L-group (Probes (FI(BW) >200) with rapid efflux were observed to have a RR of <5%, and thus were classified into L-group) |  |
| CC(C)(C)NC1=C2C=CC=[N+]2[B-](F)(F)n2cccc21 [CS-101] | L-group (Probes (FI(BW) >200) with rapid efflux were observed to have a RR of <5%, and thus were classified into L-group) |  |

Source: PMC4915154, “Development of background-free tame fluorescent probes for intracellular live cell imaging” (Nature Communications, 2016)
